# Measured values taken from US20260055103A1, “2,3,4,9-TETRAHYDRO-1H-PYRIDO[3,4-B]INDOLE DERIVATIVES AS ESTROGEN RECEPTOR MODULATORS FOR THE TREATMENT OF CANCER” (Olema Pharmaceuticals, Inc., priority 2022, published 2026).
# Biological target: T1, estrogen receptor (Homo sapiens, UniProt P03372)
# T1 construct: endogenous in cells; host or cells: ECC-1 cells
# T1 sequence (P03372 1-595): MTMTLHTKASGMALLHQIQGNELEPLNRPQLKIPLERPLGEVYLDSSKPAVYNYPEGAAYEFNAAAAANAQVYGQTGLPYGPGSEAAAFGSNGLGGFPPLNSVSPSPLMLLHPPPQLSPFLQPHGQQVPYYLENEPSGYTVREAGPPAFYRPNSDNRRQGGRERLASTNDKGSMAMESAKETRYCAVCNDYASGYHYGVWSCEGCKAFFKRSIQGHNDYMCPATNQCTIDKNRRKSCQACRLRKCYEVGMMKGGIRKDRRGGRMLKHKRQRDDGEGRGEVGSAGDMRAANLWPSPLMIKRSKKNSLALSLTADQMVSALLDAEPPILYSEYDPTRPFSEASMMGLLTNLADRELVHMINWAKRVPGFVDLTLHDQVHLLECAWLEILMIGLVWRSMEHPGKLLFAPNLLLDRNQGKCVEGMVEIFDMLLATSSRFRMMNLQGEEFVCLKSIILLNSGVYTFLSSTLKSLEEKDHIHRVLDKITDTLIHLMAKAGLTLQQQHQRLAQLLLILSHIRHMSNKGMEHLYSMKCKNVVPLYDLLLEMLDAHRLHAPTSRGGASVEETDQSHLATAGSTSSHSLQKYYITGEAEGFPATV
# Experiment: Alkaline phosphatase (AP) assay in ECC-1 cells, agonist mode (no E2) and antagonist mode (500 pM E2)
# Assay type: cell-based
# Conditions: 3 days, AP activity normalized to 500 pM E2 alone, agonist mode without E2, antagonist mode with 500 pM E2
# Method: ECC-1 cells were trypsinized and resuspended in hormone-depleted media and plated at a density of 15 k cells per well into a 96-well plate for at least 4 hours. Cells were treated with test compounds in the absence of E2 (for agonist mode) or in the presence of 500 pM E2 (for antagonist mode) for 3 days and plates were subsequently frozen at −80° C. Thawed plates were incubated with a chromogenic substrate of AP, p-nitrophenyl phosphate (Thermo Fisher Scientific), for 40 minutes at 42° C., and absorbances were read at 405 nm. AP activity was normalized to the activity of 500 pM E2 alone.
# The compound numbers correspond to the compound numbers of Table 1 and 2. Compounds having an activity designated as “+” provided estrogen receptor agonism having (i) at least 80% increase in the E2-normalized signal in the AP assay (agonist mode) and (ii) no more than 80% reduction in the E2-normalized signal in the AP assay (antagonist mode). Compounds having an activity designated as “++” provided estrogen receptor antagonism having (i) between 10% and 80% increase in the E2-normalized signal in the AP assay (agonist mode) and (ii) between 10% and 80% reduction in the E2-normalized signal in the AP assay (antagonist mode).
row,SMILES,"Activity (estrogen receptor modulation, agonism and antagonism)"
1,"C[C@@H]1Cc2c([nH]c3ccccc23)[C@@H](c2cnc(N[C@H]3CCN(CCCF)C3)s2)N1CC(F)(F)CO [Example I-73, 2,2-difluoro-3-[(1S,3R)-1-[2-[[(3S)-1-(3-fluoropropyl)pyrrolidin-3-yl]amino]thiazol-5-yl]-3-methyl-1,3,4,9-tetrahydropyrido[3,4-b]indol-2-yl]propan-1-ol]",++ (estrogen receptor antagonism having (i) between 10% and 80% increase in the E2-normalized signal in the AP assay (agonist mode) and (ii) between 10% and 80% reduction in the E2-normalized signal in the AP assay (antagonist mode))
2,"C[C@@H]1Cc2c([nH]c3ccccc23)[C@@H](c2cnc(NC3CN(CCCF)C3)s2)N1CC(F)(F)CO [Example I-63, 2,2-difluoro-3-[(1S,3R)-1-[2-[[1-(3-fluoropropyl)azetidin-3-yl]amino]thiazol-5-yl]-3-methyl-1,3,4,9-tetrahydropyrido[3,4-b]indol-2-yl]propan-1-ol]",++ (estrogen receptor antagonism having (i) between 10% and 80% increase in the E2-normalized signal in the AP assay (agonist mode) and (ii) between 10% and 80% reduction in the E2-normalized signal in the AP assay (antagonist mode))
3,C[C@@H]1Cc2c([nH]c3ccccc23)[C@@H](c2ncc(CC3CN(CCCF)C3)s2)N1CC(F)F [Example I-31],++ (estrogen receptor antagonism having (i) between 10% and 80% increase in the E2-normalized signal in the AP assay (agonist mode) and (ii) between 10% and 80% reduction in the E2-normalized signal in the AP assay (antagonist mode))
4,C[C@@H]1Cc2c([nH]c3ccccc23)[C@@H](c2ccc(CC3CN(CCC#N)C3)s2)N1CC(F)(F)CO [Example I-57],++ (estrogen receptor antagonism having (i) between 10% and 80% increase in the E2-normalized signal in the AP assay (agonist mode) and (ii) between 10% and 80% reduction in the E2-normalized signal in the AP assay (antagonist mode))
5,"C[C@@H]1Cc2c([nH]c3ccccc23)[C@@H](c2cnc(C[C@H]3CCN(CCCF)C3)s2)N1CC(F)(F)CO [Example I-36, 2,2-difluoro-3-[(1S,3R)-1-[2-[[(3R)-1-(3-fluoropropyl)pyrrolidin-3-yl]methyl]thiazol-5-yl]-3-methyl-1,3,4,9-tetrahydropyrido[3,4-b]indol-2-yl]propan-1-ol]",+ (estrogen receptor agonism having (i) at least 80% increase in the E2-normalized signal in the AP assay (agonist mode) and (ii) no more than 80% reduction in the E2-normalized signal in the AP assay (antagonist mode))
6,"COCCCN1CC(Cc2ccc([C@@H]3c4[nH]c5ccccc5c4C[C@@H](C)N3CC(C)(C)F)s2)C1 [Example I-54, (1S,3R)-2-(2-fluoro-2-methyl-propyl)-1-[5-[[1-(3-methoxypropyl)azetidin-3-yl]methyl]-2-thienyl]-3-methyl-1,3,4,9-tetrahydropyrido[3,4-b]indole]",+ (estrogen receptor agonism having (i) at least 80% increase in the E2-normalized signal in the AP assay (agonist mode) and (ii) no more than 80% reduction in the E2-normalized signal in the AP assay (antagonist mode))
7,"C[C@@H]1Cc2c([nH]c3ccccc23)[C@@H](c2nnc(CC3CN(CCCF)C3)s2)N1CC(C)(C)F [Example I-52, 2-((1S,3R)-2-(2-fluoro-2-methylpropyl)-3-methyl-2,3,4,9-tetrahydro-1H-pyrido[3,4-b]indol-1-yl)-5-((1-(3-fluoropropyl)azetidin-3-yl)methyl)-1,3,4-thiadiazole]",++ (estrogen receptor antagonism having (i) between 10% and 80% increase in the E2-normalized signal in the AP assay (agonist mode) and (ii) between 10% and 80% reduction in the E2-normalized signal in the AP assay (antagonist mode))
8,"CCCN1CC(Cc2ncc([C@@H]3c4[nH]c5ccccc5c4C[C@@H](C)N3CC(C)(C)F)s2)C1 [Example I-7, 5-((1S,3R)-2-(2-fluoro-2-methylpropyl)-3-methyl-2,3,4,9-tetrahydro-1H-pyrido[3,4-b]indol-1-yl)-2-((1-propylazetidin-3-yl)methyl)thiazole]",++ (estrogen receptor antagonism having (i) between 10% and 80% increase in the E2-normalized signal in the AP assay (agonist mode) and (ii) between 10% and 80% reduction in the E2-normalized signal in the AP assay (antagonist mode))
9,"C[C@@H]1Cc2c([nH]c3ccccc23)[C@@H](c2cnc(CC3CN(CCCF)C3)s2)N1CC(F)(F)F [Example I-38, 2-[[1-(3-fluoropropyl)azetidin-3-yl]methyl]-5-[(1S,3R)-3-methyl-2-(2,2,2-trifluoroethyl)-1,3,4,9-tetrahydropyrido[3,4-b]indol-1-yl]thiazole]",++ (estrogen receptor antagonism having (i) between 10% and 80% increase in the E2-normalized signal in the AP assay (agonist mode) and (ii) between 10% and 80% reduction in the E2-normalized signal in the AP assay (antagonist mode))
10,"C[C@@H]1Cc2c([nH]c3ccccc23)[C@@H](c2cnc(C[C@H]3CCN(CCCF)C3)s2)N1CC(F)(F)F [Example I-33, 2-(((R)-1-(3-fluoropropyl)pyrrolidin-3-yl)methyl)-5-((1S,3R)-3-methyl-2-(2,2,2-trifluoroethyl)-2,3,4,9-tetrahydro-1H-pyrido[3,4-b]indol-1-yl)thiazole]",++ (estrogen receptor antagonism having (i) between 10% and 80% increase in the E2-normalized signal in the AP assay (agonist mode) and (ii) between 10% and 80% reduction in the E2-normalized signal in the AP assay (antagonist mode))
11,"CCN1CCC(c2ccc([C@@H]3c4[nH]c5ccccc5c4C[C@@H](C)N3CC(C)(C)F)s2)CC1 [Example I-69, (1S,3R)-1-(5-(1-ethylpiperidin-4-yl)thiophen-2-yl)-2-(2-fluoro-2-methylpropyl)-3-methyl-2,3,4,9-tetrahydro-1H-pyrido[3,4-b]indole]",++ (estrogen receptor antagonism having (i) between 10% and 80% increase in the E2-normalized signal in the AP assay (agonist mode) and (ii) between 10% and 80% reduction in the E2-normalized signal in the AP assay (antagonist mode))
12,"C[C@@H]1Cc2c([nH]c3ccccc23)[C@@H](c2ccc(CC3CN(CCCF)C3)s2)N1CC(C)(F)F [Example I-22, 3-({5-[(1S,3R)-2-(2,2-difluoropropyl)-3-methyl-1H,2H,3H,4H,9H-pyrido[3,4-b]indol-1-yl]thiophen-2-yl}methyl)-1-(3-fluoropropyl)azetidine]",++ (estrogen receptor antagonism having (i) between 10% and 80% increase in the E2-normalized signal in the AP assay (agonist mode) and (ii) between 10% and 80% reduction in the E2-normalized signal in the AP assay (antagonist mode))
13,"CCN1CCN(c2ccc([C@@H]3c4[nH]c5ccccc5c4C[C@@H](C)N3CC(C)(C)F)s2)CC1 [Example I-74, (1S,3R)-1-[5-(4-ethylpiperazin-1-yl)-2-thienyl]-2-(2-fluoro-2-methyl-propyl)-3-methyl-1,3,4,9-tetrahydropyrido[3,4-b]indole]",+ (estrogen receptor agonism having (i) at least 80% increase in the E2-normalized signal in the AP assay (agonist mode) and (ii) no more than 80% reduction in the E2-normalized signal in the AP assay (antagonist mode))
14,"C[C@@H]1Cc2c([nH]c3ccccc23)[C@@H](c2cnc(C[C@H]3CCN(CCCF)C3)s2)N1CC(F)F [Example I-30, 5-((1S,3R)-2-(2,2-difluoroethyl)-3-methyl-2,3,4,9-tetrahydro-1H-pyrido[3,4-b]indol-1-yl)-2-(((R)-1-(3-fluoropropyl)pyrrolidin-3-yl)methyl)thiazole]",++ (estrogen receptor antagonism having (i) between 10% and 80% increase in the E2-normalized signal in the AP assay (agonist mode) and (ii) between 10% and 80% reduction in the E2-normalized signal in the AP assay (antagonist mode))
15,"CC1CN(CCCc2ccc([C@@H]3c4[nH]c5ccccc5c4C[C@@H](C)N3CC(C)(C)F)s2)C1 [Example I-19, 1-(3-{5-[(1S,3R)-2-(2-fluoro-2-methylpropyl)-3-methyl-1H,2H,3H,4H,9H-pyrido[3,4-b]indol-1-yl]thiophen-2-yl}propyl)-3-methylazetidine]",++ (estrogen receptor antagonism having (i) between 10% and 80% increase in the E2-normalized signal in the AP assay (agonist mode) and (ii) between 10% and 80% reduction in the E2-normalized signal in the AP assay (antagonist mode))
